From US20230295133A1, “PROCESS FOR PREPARING A COMPOUND USEFUL TO TREAT MYCOSES” (PULMOCIDE LIMITED, priority 2014, published 2023)
Values after ≈ are worked out from the molar mass of the structure shown.

Tests used:
[1] = tested on: aspergillus fumigatus infection of BEAS2B cells; experiment: Aspergillus fumigatus infection of bronchial epithelial cells (GM in supernatant); assay type: cell-based; settings: bronchial epithelial cells infected with Aspergillus fumigatus; read-out: MIC50 Infection of BEAS2B cells
Procedure: BEAS2B cells were seeded in 96-well plates (100 µL; 30,000 cells / well; Catalogue No 3596, Sigma Aldrich, Dorset, UK) in 10% FBS RPMI-1640 and were then incubated (37° C., 5% CO2) for one day before experimentation. Test compounds (0.5 µL DMSO solution) or vehicle (DMSO) were added to each well to give a final DMSO concentration of 0.5%. BEAS2B cells were incubated with test compounds for 1 hr (35° C., 5% CO2) before infection with aspergillus fumigatus (20 µL; Public Health England) conidia suspension (0.5×10^5 /ml in 10% FBS RPMI-1640). The plate was incubated for 24 hr (35° C., 5% CO2). Supernatant (50 µL) was collected and transferred to a PCR plate (Catalogue No L1402-9700, Starlab, Milton Keynes, UK), which was frozen (-20° C.) until use. After thawing, supernatant (5 µL) was diluted 1:20 by adding R7-PBS solution (95 µL; 1:4 R7 to PBS; Bio-Rad Laboratories, Redmond, WA, USA). GM levels in these samples (50 µL) were measured using Platelia GM-EIA kits (Bio-Rad Laboratories, Redmond, WA, USA). The percentage inhibition for each well was calculated and the IC50 value was calculated from the concentration-response curve generated for each test compound.

[2] = Cell viability: resazurin assay; assay type: cell-based, human; settings: human, BEAS2B cells; n = 3-5
Procedure: BEAS2B cells were seeded in 384-well plates (100 µL; 3000 / well /; BD Falcon, Catalogue No 353962) in RPMI-LHC8 (RPMI-1640 and LHC8 media combined in equal proportions) one day before experimentation. For cell-free control wells, RPMI-LHC8 (100 µL) was added. Test compounds (0.5 µL of a DMSO solution) were added to give a final DMSO concentration of 0.5% using an Integra VIAFLO 96 (Integra, Zizers, Switzerland). BEAS2B cells were incubated with each test compound for 1 day (37° C. / 5% CO2 in RPMI-LHC8). After addition of resazurin stock solution (5 µL, 0.04%) the plates were incubated for a further 4 hr (37° C. / 5% CO2). The fluorescence of each well at 545 nm (excitation) and 590 nm (emission) was determined using a multi-scanner (Clariostar: BMG Labtech). The percentage loss of cell viability was calculated for each well relative to vehicle (0.5% DMSO) treatment. Where appropriate, a CC50 value was calculated from the concentration-response curve generated from the concentration-response curve for each test compound.

[3] = tested on: Aspergillus fumigatus L98H (TR34/L98H); experiment: Broth microdilution assay (modified EUCAST); assay type: cell-based; settings: Aspergillus fumigatus, read-out: MIC75 against Aspergillus fumigatus isolate L98H
Procedure: (§1) This assay was conducted using a modified method published by EUCAST (Rodriguez-Tudela et al., 2008). Spores of aspergillus fumigatus (NCPF2010, NCPF7010 (Methionine 220 mutation), NCPF7099 (Glycine G54 mutation) from Public Health England, Wiltshire; TR34/L98H mutants from St Louis Hospital, Paris, France) were cultured in Sabouraud dextrose agar for 3 days. A stock spore suspension was prepared from a Sabouraud dextrose agar culture by washing with PBS-tween (10 mL; PBS containing 0.05% Tween-20, 100 U/mL Penicillin and 100 U/mL Streptomycin). The spore count was assessed using a Neubauer haemocytometer and then adjusted to 10^6 spores/mL with PBS. A working suspension of spores (2 × 10^5 spores/mL) was prepared in filter sterilised, BSA MOPS RPMI-1640 (50 mL; RPMI-1640 containing 2 mM L-glutamine, 0.5% BSA, 2% glucose, 0.165 M MOPS, buffered to pH 7 with NaOH). For the assay, BSA MOPS RPMI-1640 (50 µL/well) was added throughout the 384-well plate (Catalogue number 353962, BD Falcon, Oxford, UK) first. Test compounds (0.5 µL DMSO solution) were then added in quadruplicate using an Integra VIAFLO 96 (Integra, Zizers, Switzerland), and mixed well using a plate mixer. Subsequently 50 µL of the working spore suspension prepared above was added to all wells except non-spore control wells. For non-spore control wells, BSA MOPS-RPMI solution (50 µL/well) was added instead. The plate was covered with a plastic lid, and incubated (35° C. with ambient air) for 48 hr. The OD of each well at 530 nm was determined using a multi-scanner (Clariostar: BMG, Buckinghamshire, UK). The percentage inhibition for each well was calculated and the MIC50, MIC75 and MIC90 values were calculated from the concentration-response curve generated for each test compound.

[4] = tested on: Aspergillus fumigatus NCPF2010; experiment: Broth microdilution assay (modified EUCAST); assay type: cell-based; settings: Aspergillus fumigatus, NCPF2010, read-out: MIC75 against Aspergillus fumigatus isolate NCPF2010
Procedure: as §1

[5] = tested on: Aspergillus fumigatus NCPF7099; experiment: Broth microdilution assay (modified EUCAST); assay type: cell-based; settings: Aspergillus fumigatus, NCPF7099, n = 3, read-out: MIC75 against Aspergillus fumigatus isolate NCPF7099
Procedure: as §1

[6] = tested on: Aspergillus fumigatus NCPF7100; experiment: Broth microdilution assay (modified EUCAST); assay type: cell-based; settings: Aspergillus fumigatus, NCPF7100, read-out: MIC75 against Aspergillus fumigatus isolate NCPF7100

Row | SMILES | MIC50 [1] | CC50 at 1 day [2] | MIC [3] | MIC [4] | MIC [5] | MIC [6]
1 | CNS(=O)(=O)c1ccc(NC(=O)c2ccc(N3CCN(c4ccc(OC[C@@H]5CO[C@@](Cn6cncn6)(c6ccc(F)cc6F)C5)c(C)c4)CC3)cc2)cc1 [Example 20, 4-(4-(4-(((3R, 5R)-5-((1H-1,2,4-triazol-1-yl)methyl)-5-(2,4-difluorophenyl)tetrahydrofuran-3-yl)methoxy)-3-methylphenyl)piperazin-1-yl)-N-(4-(N-methylsulfamoyl)phenyl)benzamide] | 0.0361 µM (≈ 0.0274 µg/mL) | > 13.2 µM | 0.0461 µM (≈ 0.0349 µg/mL) | 0.0188 µM (≈ 0.0142 µg/mL) | 0.0111 µM (≈ 0.00841 µg/mL) | 0.0146 µM (≈ 0.0111 µg/mL)
2 | Cc1cc(N2CCN(c3ccc(C(=O)Nc4cc(F)cc(F)c4)cc3)CC2)ccc1OC[C@@H]1CO[C@@](Cn2cncn2)(c2ccc(F)cc2F)C1 [Example 28, 4-(4-(4-(((3R, 5R)-5-((1H-1,2,4-triazol-1-yl)methyl)-5-(2,4-difluorophenyl)tetrahydrofuran-3-yl)methoxy)3-methylphenyl)piperazin-1-yl)-N-(3,5-difluorophenyl)benzamide] | 0.0117 µM (≈ 0.0082 µg/mL) | > 14.3 µM | 0.198 µM (≈ 0.139 µg/mL) | 0.0319 µM (≈ 0.0224 µg/mL) | 0.0266 µM (≈ 0.0186 µg/mL) | 0.0361 µM (≈ 0.0253 µg/mL)
3 | Cc1cc(N2CCN(c3ccc(C(=O)Nc4ccc(C#N)cn4)cc3)CC2)ccc1OC[C@@H]1CO[C@@](Cn2cncn2)(c2ccc(F)cc2F)C1 [Example 7] | 0.0125 µM (≈ 0.00863 µg/mL) | > 14.5 µM | 0.0419 µM (≈ 0.0289 µg/mL) | 0.00586 µM (≈ 0.00405 µg/mL) | 0.0141 µM (≈ 0.00974 µg/mL) | 0.00407 µM (≈ 0.00281 µg/mL)
4 | Cc1cc(N2CCN(c3ccc(C(=O)Nc4ccc(F)cn4)cc3)CC2)ccc1OC[C@@H]1CO[C@@](Cn2cncn2)(c2ccc(F)cc2F)C1 [Example 6, 4-(4-(4-(((3R,5R)-5-((1H-1,2,4-Triazol-1-yl)Methyl)-5-(2,4-Difluorophenyl)Tetra Hydrofuran-3-yl)Methoxy)-3-Methylphenyl)Piperazin-1-yl)-N-(5-Fluoropyridin-2-yl) Benzamide] | 0.0239 µM (≈ 0.0163 µg/mL) | > 14.6 µM | 0.131 µM (≈ 0.0896 µg/mL) | 0.0125 µM (≈ 0.00855 µg/mL) | 0.0212 µM (≈ 0.0145 µg/mL) | 0.0214 µM (≈ 0.0146 µg/mL)
5 | Cc1cc(N2CCN(c3ccc(C(=O)Nc4ccc(Cl)c(F)c4)cc3)CC2)ccc1OC[C@@H]1CO[C@@](Cn2cncn2)(c2ccc(F)cc2F)C1 [Example 30, 4-(4-(4-(((3R, 5R)-5-((1H-1,2,4-triazol-1-yl)methyl)-5-(2,4-difluorophenyl)tetrahydrofuran-3-yl)methoxy)-3-methylphenyl)piperazin-1-yl)-N-(4-chloro-3-fluorophenyl)benzamide] | 1.05 µM (≈ 0.753 µg/mL) | > 13.9 µM | 0.191 µM (≈ 0.137 µg/mL) | 0.0584 µM (≈ 0.0419 µg/mL) | 0.0347 µM (≈ 0.0249 µg/mL) | 0.0413 µM (≈ 0.0296 µg/mL)
6 | N#Cc1ccc(NC(=O)c2ccc(N3CCN(c4ccc(OC[C@@H]5CO[C@@](Cn6cncn6)(c6ccc(F)cc6F)C5)c(CO)c4)CC3)cc2)nc1 [Example 38, 4-(4-(4-(((3R, 5R)-5-((1H-1,2,4-triazol-1-yl)methyl)-5-(2,4-difluorophenyl)tetrahydrofuran-3-yl)methoxy)-3-hydroxymethylphenyl)piperazin-1-yl)-N-(5-cyanopyridin-2-yl)benzamide] | 0.00486 µM (≈ 0.00343 µg/mL) | > 14.1 µM | 0.0654 µM (≈ 0.0462 µg/mL) | 0.0124 µM (≈ 0.00876 µg/mL) | 0.0319 µM (≈ 0.0225 µg/mL) | 0.0336 µM (≈ 0.0237 µg/mL)
7 | Cc1cc(N2CCN(c3ccc(C(=O)Nc4ccc(OC(F)F)cc4)cc3)CC2)ccc1OC[C@@H]1CO[C@@](Cn2cncn2)(c2ccc(F)cc2F)C1 [Example 12, 4-(4-(4-(((3R,5R)-5-((1H-1,2,4-triazol-1-yl)methyl)-5-(2,4-difluorophenyl)tetrahydrofuran-3-yl)methoxy)-3-methylphenyl)piperazin-1-yl)-N-(4-difluoromethoxyphenyl)benzamide] | 0.0973 µM (≈ 0.0711 µg/mL) | > 13.7 µM | 0.0459 µM (≈ 0.0335 µg/mL) | 0.0134 µM (≈ 0.00979 µg/mL) | 0.0228 µM (≈ 0.0167 µg/mL) | 0.0303 µM (≈ 0.0221 µg/mL)
8 | Cc1cc(N2CCN(c3ccc(C(=O)Nc4ccc(OC(F)F)c(F)c4)cc3)CC2)ccc1OC[C@@H]1CO[C@@](Cn2cncn2)(c2ccc(F)cc2F)C1 [Example 25, 4-(4-(4-(((3R,5R)-5-((1H-1,2,4-triazol-1-yl)methyl)-5-(2,4-difluorophenyl)tetrahydrofuran-3-yl)methoxy)-3-methylphenyl)piperazin-1-yl)-N-(4-(difluoromethoxy)-3-fluorophenyl) benzamide] | 0.23 µM (≈ 0.172 µg/mL) | > 13.4 µM | 0.0659 µM (≈ 0.0493 µg/mL) | 0.0845 µM (≈ 0.0633 µg/mL) | 0.0251 µM (≈ 0.0188 µg/mL) | 0.0476 µM (≈ 0.0356 µg/mL)
9 | N#Cc1ccc(NC(=O)c2ccc(N3CCN(c4ccc(OCC5CO[C@@](Cn6cncn6)(c6ccc(F)cc6F)C5)c(Cl)c4)CC3)cc2)cc1 (stereo in doubt) [Example 10, 4-(4-(4-(((3R,5R)-5-((1H-1,2,4-triazol-1-yl)methyl)-5-(2,4-difluorophenyl)tetrahydrofuran-3-yl)methoxy)-3-chlorophenyl)piperazin-1-yl)-N-(4-cyanophenyl)benzamide] | 0.0145 µM (≈ 0.0103 µg/mL) | > 14.1 µM | 0.0812 µM (≈ 0.0577 µg/mL) | 0.022 µM (≈ 0.0156 µg/mL) | 0.00996 µM (≈ 0.00707 µg/mL) | 0.0295 µM (≈ 0.021 µg/mL)
10 | Cc1cc(N2CCN(c3ccc(C(=O)Nc4cc(F)ccc4F)cc3)CC2)ccc1OC[C@@H]1CO[C@@](Cn2cncn2)(c2ccc(F)cc2F)C1 [Example 26, 4-(4-(4-(((3R, 5R)-5-((1H-1,2,4-triazol-1-yl)methyl)-5-(2,4-difluorophenyl)tetrahydrofuran-3-yl)methoxy)-3-methylphenyl)piperazin-1-yl)-N-(2,5-difluorophenyl)benzamide] | > 1.43 µM | > 14.3 µM | 0.126 µM (≈ 0.0883 µg/mL) | 0.0311 µM (≈ 0.0218 µg/mL) | 0.131 µM (≈ 0.0918 µg/mL) | 0.091 µM (≈ 0.0638 µg/mL)
11 | Cc1cc(N2CCN(c3ccc(C(=O)Nc4ccc(F)cc4)cc3C)CC2)ccc1OC[C@@H]1CO[C@@](Cn2cncn2)(c2ccc(F)cc2F)C1 [Example 32, 4-(4-(4-(((3R,5R)-5-((1H-1,2,4-triazol-1-yl)methyl)-5-(2,4-difluorophenyl)tetrahydrofuran-3-yl)methoxy)-3-methylphenyl)piperazin-1-yl)-N-(4-fluorophenyl)-3-methylbenzamide] | 0.0261 µM (≈ 0.0182 µg/mL) | > 14.4 µM | 0.0695 µM (≈ 0.0484 µg/mL) | 0.0697 µM (≈ 0.0486 µg/mL) | 0.0481 µM (≈ 0.0335 µg/mL) | 0.0609 µM (≈ 0.0424 µg/mL)
